Assay results: patent US20110301079A1, “NEUROMEDIN U RECEPTOR AGONISTS AND USES THEREOF” (Instituto di Ricerche di Biologia Molecolare P. Angeletti …, priority 2007, published 2011)

Legend:
human NMUR2 = target: T1, human NMUR2 (Homo sapiens, UniProt Q9GZQ4); assay: FLIPR calcium mobilization assay, human NMUR2-expressing cell line; assay type: cell-based
T1 construct: expressed in transfected cells; host or cells: FLP-In CHO cells and HEK-293 FLP-In cells (pcDNA5)
Excerpt: (§1) Human, mouse or rat cDNAs encoding NMUR1 or NMUR2 (as described in Howard et al. Nature 406: 70-74 (2000) were subcloned in pcDNA5 (Invitrogen) and transfected into FLP-In CHO cells and HEK-293 FLP-In cells purchased from Invitrogen (Carlsbad, Calif.) using lipofectamine (Invitrogen). The Flp-In system allows integration and expression of a particular gene of interest at a specific genomic location utilizing the Flp recombinase from yeast. The transfected cells were selected by growth in medium containing 200 μg/mL hygromycin (Invitrogen). Populations were frozen at early passage numbers, and these stocks were used for further studies. Stable clones that expressed the mRNAs were identified functionally by FLIPR as well as by RT-PCR. […] Two different rodent NMUR1 cell lines were thus generated: one with the codon as predicted from the genomic databases and another cell line with an engineered methionine (ATG) as the start codon. The dog NMU receptors were also cloned from intestine RNA (NMUR1) and brain (NMUR2) and stable cell lines were generated as used for the human and rodent cell lines. […] To ensure high levels of expression in a heterologous system, a dog NMUR1 cell line was generated that contains an ATG as the start codon. Additionally, stable cell lines expressing the human receptors were generated in HEK-293/aeq 17 cells which stably express the aequorin gene under the CMV promoter. The human NMUR2 cDNA was cloned into pcDNA3.1 and human NMUR1 was subcloned into pIRES-puro (Clontech, Mountain View, Calif.), after transfection cells were selected in media containing G418 and either hygromycin (NMUR2) or puromycin (NMUR1).
(§2) The NMU receptors signal primarily through Gαq/11 proteins; therefore calcium mobilization assays can be utilized for functional activity.
(§3) Stable cell lines expressing human and or rodent NMUR1 or human NMUR2 receptors are plated at a density of 12,000 cells per well overnight on poly-lysine coated 384-well black-walled plates. The following day, the media is removed from the plates and the cells were subsequently loaded with Fluo-3 (Molecular Probes), a calcium sensitive dye, diluted in FLIPR buffer (1× Hank's buffered saline containing 20 mM HEPES, 0.1% BSA, 2.5 mM probenecid (Sigma) and 1.6 mM TR40). All reagents are from Invitrogen unless otherwise noted. Peptide stocks are resuspended in DMSO at a stock concentration of 2 mM and diluted in FLIPR buffer on the day of the experiment to a 4 μM working stock solution.
(§4) After a 90 minute incubation at room-temperature, cell plates are loaded onto a FLIPR (Molecular Devices) to monitor cellular fluorescence (excitation=488 nm; emission=540 nm) before and after compound/peptide addition. Eight to twelve point dose responses are tested on NMUR-expressing cell lines using FLIPR with 1 μM peptide as the highest dose. The response after peptide addition is taken as the maximum fluorescence units minus the fluorescence immediately prior to stimulation for each well. EC50 values are calculated using GraphPad Prism (San Diego, Calif.) software.
(§5) Percent activity refers to the maximum response at 1 μM compared to the human NMU-25 response at the same concentration.

human NMUR1 = target: T2, human NMUR1 (Homo sapiens, UniProt Q9HB89); assay: FLIPR calcium mobilization assay, human NMUR1-expressing cell line; assay type: cell-based
T2 construct: expressed in transfected cells; host or cells: FLP-In CHO cells and HEK-293 FLP-In cells (pcDNA5)
T2 sequence (Q9HB89 1-426): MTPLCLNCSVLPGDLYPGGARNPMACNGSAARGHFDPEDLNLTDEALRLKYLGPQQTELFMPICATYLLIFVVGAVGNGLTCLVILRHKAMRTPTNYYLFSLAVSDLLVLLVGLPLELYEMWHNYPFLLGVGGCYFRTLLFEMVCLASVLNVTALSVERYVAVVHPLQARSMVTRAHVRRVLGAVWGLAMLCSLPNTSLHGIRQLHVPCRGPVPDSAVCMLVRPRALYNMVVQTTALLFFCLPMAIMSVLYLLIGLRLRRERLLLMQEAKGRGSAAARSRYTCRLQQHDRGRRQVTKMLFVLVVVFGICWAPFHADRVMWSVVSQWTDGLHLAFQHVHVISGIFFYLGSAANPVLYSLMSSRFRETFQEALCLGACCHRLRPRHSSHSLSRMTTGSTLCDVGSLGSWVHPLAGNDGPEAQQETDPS
Excerpt: as §1, §2, §3, §4, §5

[1] = test system: male diet-induced obese mice; assay: Acute feeding study with NMU and NMS; assay type: in vivo
Procedure: (§6) Ad libitum fed male diet-induced obese mice obtained from Taconic Farms were weighed and dosed either i.p. or s.c. with NMS or NMU at about 30 minutes prior to the onset of the dark phase of the light cycle and provided with a pre-weighed aliquot of high fat diet (D12492: 60% kcal from fat: Research Diets, Inc.), which was then weighed two and 18 hours after the onset of the initial dark phase. Mice were weighed at the 18 hour (overnight) time point.

[2] = test system: diet-induced obese animals; assay: Chronic administration by subcutaneous micro-osmotic pumps; assay type: in vivo, mice; conditions: two weeks
Procedure: Chronic administration of peptide was evaluated using micro-osmotic pumps designed to deliver 0.5 μl/h (Alza Co.). Pumps were filled with peptide or vehicle and implanted subcutaneously in the intrascapular space in diet-induced obese animals. Mice were fed ad libitum and food intake and body weight were measured daily for two weeks. […] Cumulative body weight change (FIG. 2A) and cumulative food intake (FIG. 2B) with two-week treatment of NMU and NMS are shown.

[3] = test system: wild-type, Nmur1 knockout, Nmur2 knockout and Nmur1/Nmur2 double knockout mice; assay: Acute feeding study in wild-type and Nmur knockout mice; assay type: in vivo
Procedure: as §6
NMUR1 knockout (Nmur1−/−) mice were generated using standard homologous recombination techniques. Nmur1 mice were subsequently transferred to Taconic Farms where they were either maintained on a 75% C57BL/6×25% 129S6/SvEv mixed genetic background or backcrossed 6 generations to C57BL/6. NMUR2 knockout (Nmur2−/−) mice were licensed from Deltagen Inc., San Mateo, Calif. and subsequently transferred to Taconic Farms were they were either maintained on a 75% C57BL/6×25% 129/OlaHsd mixed genetic background or backcrossed for 7 generations to C57BL/6. NMUR1 and NMUR2 double knockout (Nmur1&2−/−) mice were generated by crossing N6 Nmur1−/− mice to N7 Nmur2−/− mice. Mice were individually housed in Tecniplast cages in a conventional SPF facility. Mice were initially maintained on a regular chow diet and then early in their life were switched to a high fat diet (D12492) with ad libitum access to water in a 12-h light/12-h dark cycle.
The anorectic effects of NMS1 were mediated by both the NMUR1 and NMUR2 receptors. […] Effects on food intake (FIG. 9A) and body weight (FIG. 9B) are shown.

T1 sequence (Q9GZQ4 whole entry): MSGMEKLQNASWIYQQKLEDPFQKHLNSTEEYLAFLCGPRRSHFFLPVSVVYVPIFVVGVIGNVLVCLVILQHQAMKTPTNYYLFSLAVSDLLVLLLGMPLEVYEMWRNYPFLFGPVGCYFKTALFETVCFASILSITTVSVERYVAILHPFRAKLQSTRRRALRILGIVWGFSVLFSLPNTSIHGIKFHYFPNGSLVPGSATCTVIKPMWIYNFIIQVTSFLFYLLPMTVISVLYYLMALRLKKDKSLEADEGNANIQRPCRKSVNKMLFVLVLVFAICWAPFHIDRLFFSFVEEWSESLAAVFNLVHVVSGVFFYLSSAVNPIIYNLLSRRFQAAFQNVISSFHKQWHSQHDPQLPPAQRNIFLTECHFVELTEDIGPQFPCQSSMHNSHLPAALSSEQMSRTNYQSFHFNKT

“H-ILQRGSGTAAVDFTKKDHTATWGRPFFLFRPRN-NH2 [NMS, reference compound]” was tested, and the EC50 (human NMUR2; human NMUR2, FLIPR) was 12.6 nM, the “% Activity” value (human NMUR2; human NMUR2, maximum response at 1 μM compared to the human NMU-25 response at the same concentration) was 107% and the EC50 (human NMUR1; human NMUR1, FLIPR) was 6.7 nM. The “% Activity” value (human NMUR1; human NMUR1, maximum response at 1 μM compared to the human NMU-25 response at the same concentration) was 97%, the “anorectic effects compared with NMU” value ([1]; acute peripheral administration) was “appeared to be greater than the anorectic effects observed with NMU” and the food intake ([1]; acute peripheral administration (i.p. or s.c.), FIG. 1A) was “significantly reduced”. The body weight ([1]; acute peripheral administration, 18 hour (overnight), FIG. 1B) was “significantly reduced”, the “effect on food intake and body weight compared with NMU” value [2] was “appeared to be greater than that observed for NMU” and the body weight ([2]; cumulative change, FIG. 2A) was “significantly reduced”. The food intake ([2]; cumulative, FIG. 2B) was “significantly reduced”, the food intake ([3]; Nmur1 knockout mice, highest dose tested) was “modest but significant effect” and the food intake ([3]; acute peripheral administration, Nmur1 knockout mice) was “not in Nmur1 knockout mice”. The food intake ([3]; acute peripheral administration, Nmur2 knockout mice) was “significantly reduced” and the food intake ([3]; acute peripheral administration, wild-type mice) was “significantly reduced”.
